Publication PMC9096814 (Biochemistry, 2022)
Where two headings read alike, the source gives them in different places.

How the values were obtained:
cathepsin B [1] = target: T1, cathepsin B (Homo sapiens, UniProt P07858); experiment: Multiplex substrate profiling by mass spectrometry; assay type: biochemical; settings: 10 nM inhibitor, 30 min preincubation
Cathepsin S = Cathepsin S (Homo sapiens, UniProt P25774); experiment: Selectivity assay, cathepsin S; assay type: biochemical; settings: for % inhibition: 16 μM inhibitor
Chain of Cathepsin S (P25774 115-331): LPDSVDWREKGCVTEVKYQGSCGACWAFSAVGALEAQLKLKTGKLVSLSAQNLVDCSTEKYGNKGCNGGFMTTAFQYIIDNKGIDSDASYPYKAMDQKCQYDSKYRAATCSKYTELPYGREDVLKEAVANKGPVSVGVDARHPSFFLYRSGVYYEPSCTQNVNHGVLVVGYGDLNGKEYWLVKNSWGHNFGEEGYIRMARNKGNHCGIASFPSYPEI

cathepsin B [2] = target: T1, cathepsin B; experiment: Cathepsin B activity assay with Z-Phe-Arg-AMC, inhibition kinetics; assay type: biochemical; settings: for KI (inactivation): read-out: KI, irreversible inhibitor kinetics
Cathepsin C = Cathepsin C (Homo sapiens, UniProt P53634); experiment: Selectivity assay, cathepsin C; assay type: biochemical; settings: for % inhibition: 16 μM inhibitor
Chain of Cathepsin C (P53634 25-134 limits assumed): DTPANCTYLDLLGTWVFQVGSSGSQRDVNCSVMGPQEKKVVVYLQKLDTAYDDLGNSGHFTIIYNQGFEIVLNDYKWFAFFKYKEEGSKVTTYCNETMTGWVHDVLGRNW
Chain of Cathepsin C (P53634 231-394 limits assumed): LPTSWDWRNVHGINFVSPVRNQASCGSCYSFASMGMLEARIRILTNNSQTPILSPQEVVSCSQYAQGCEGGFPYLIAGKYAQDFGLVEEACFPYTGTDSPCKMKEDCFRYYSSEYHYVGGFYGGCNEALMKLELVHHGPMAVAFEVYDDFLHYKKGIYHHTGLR
Chain of Cathepsin C (P53634 395-463 limits assumed): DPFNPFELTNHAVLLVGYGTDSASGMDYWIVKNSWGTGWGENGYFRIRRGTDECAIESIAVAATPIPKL

Cathepsin X = Cathepsin X (Homo sapiens, UniProt Q9UBR2); experiment: Selectivity assay, cathepsin X; assay type: biochemical; settings: for % inhibition: 16 μM inhibitor
Chain of Cathepsin X (Q9UBR2 62-303): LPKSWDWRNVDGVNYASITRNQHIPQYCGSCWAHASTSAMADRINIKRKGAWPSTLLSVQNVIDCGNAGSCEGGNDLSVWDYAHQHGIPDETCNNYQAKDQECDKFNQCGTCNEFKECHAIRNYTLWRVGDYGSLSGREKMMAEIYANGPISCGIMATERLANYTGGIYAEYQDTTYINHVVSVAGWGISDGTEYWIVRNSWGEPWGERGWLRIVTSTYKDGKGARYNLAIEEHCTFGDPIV

Cathepsin V = Cathepsin V (Homo sapiens, UniProt O60911); experiment: Selectivity assay, cathepsin V; assay type: biochemical; settings: for % inhibition: 16 μM inhibitor
Chain of Cathepsin V (O60911 114-334): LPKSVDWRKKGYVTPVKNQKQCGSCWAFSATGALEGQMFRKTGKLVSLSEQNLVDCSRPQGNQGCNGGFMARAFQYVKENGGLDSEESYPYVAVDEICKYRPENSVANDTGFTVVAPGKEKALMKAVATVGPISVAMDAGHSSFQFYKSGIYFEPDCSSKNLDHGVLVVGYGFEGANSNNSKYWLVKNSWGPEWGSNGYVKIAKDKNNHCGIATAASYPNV

Cathepsin K = target: T2, Cathepsin K (Homo sapiens, UniProt P43235); experiment: Selectivity assay, cathepsin K; assay type: biochemical; settings: for % inhibition: 16 μM inhibitor
T2 sequence (P43235 115-329): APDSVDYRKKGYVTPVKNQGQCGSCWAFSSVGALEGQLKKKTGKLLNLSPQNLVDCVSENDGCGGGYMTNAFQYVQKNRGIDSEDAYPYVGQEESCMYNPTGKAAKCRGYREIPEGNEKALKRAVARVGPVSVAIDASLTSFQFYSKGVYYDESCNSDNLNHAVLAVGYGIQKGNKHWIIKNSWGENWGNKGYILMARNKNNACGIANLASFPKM

cathepsin B [3] = target: T1, cathepsin B; experiment: Irreversible inhibition mechanism by dilution experiments; assay type: biochemical; settings: pH 4.6, pH 5.5, and pH 7.2; preincubation at 10 times the IC50, diluted 100-fold, Z-F-R-AMC added
Cathepsin L = Cathepsin L (Homo sapiens, UniProt P07711); experiment: Selectivity assay, cathepsin L; assay type: biochemical; settings: for % inhibition: 16 μM inhibitor
Chain of Cathepsin L (P07711 114-333): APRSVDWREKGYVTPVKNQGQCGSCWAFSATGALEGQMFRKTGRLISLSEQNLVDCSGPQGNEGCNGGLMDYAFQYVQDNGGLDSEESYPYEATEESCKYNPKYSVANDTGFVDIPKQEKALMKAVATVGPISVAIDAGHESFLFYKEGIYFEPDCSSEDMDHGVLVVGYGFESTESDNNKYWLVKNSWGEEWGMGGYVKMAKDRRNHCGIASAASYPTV

Cathepsin H = Cathepsin H (Homo sapiens, UniProt P09668); experiment: Selectivity assay, cathepsin H; assay type: biochemical; settings: for % inhibition: 16 μM inhibitor
Chain of Cathepsin H (P09668 116-335 limits assumed, other chains not shown): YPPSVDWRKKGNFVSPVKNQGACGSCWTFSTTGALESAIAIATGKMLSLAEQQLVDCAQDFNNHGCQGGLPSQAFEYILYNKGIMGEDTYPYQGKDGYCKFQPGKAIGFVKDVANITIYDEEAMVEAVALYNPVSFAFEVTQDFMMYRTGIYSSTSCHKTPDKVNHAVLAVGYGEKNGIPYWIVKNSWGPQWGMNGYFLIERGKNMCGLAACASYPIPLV

cathepsin B [4] = settings: ref [44]; cited from earlier work

CCCNC(=O)[C@H]1O[C@@H]1C(=O)N[C@H](C(=O)N1CCC[C@H]1C(=O)O)[C@@H](C)CC (relative stereo) [CA-074, N-(L-3-trans-propylcarbamoyloxirane-2-carbonyl)-L-isoleucyl-L-proline]
effect on cathepsin B cleavages of peptide library substrates (MSP-MS) (cathepsin B [1]; pH 4.6): blocked | effect on cathepsin B cleavages of peptide library substrates (MSP-MS) (cathepsin B [1]; pH 7.2): no effect | IC50 (Cathepsin S; pH 4.6): > 16 µM | IC50 (Cathepsin S; pH 5.5): 4.8 µM | IC50 (Cathepsin S; pH 7.2): > 16 µM | % inhibition (Cathepsin S; pH 7.2): 29% | effect on cathepsin B cleavage of Z-Phe-Arg-AMC substrate (cathepsin B [2]; 10 nM inhibitor, pH 7.2): no effect | IC50 (Cathepsin C; pH 4.6): > 16 µM | IC50 (Cathepsin C; pH 5.5): > 16 µM | IC50 (Cathepsin C; pH 7.2): > 16 µM | IC50 (Cathepsin X; pH 4.6): > 16 µM | % inhibition (Cathepsin X; pH 4.6, 16 µM): 5% | IC50 (Cathepsin X; pH 5.5): > 16 µM | IC50 (Cathepsin V; pH 4.6): > 16 µM | % inhibition (Cathepsin V; pH 4.6, 16 µM): 10% | IC50 (Cathepsin V; pH 5.5): > 16 µM | IC50 (Cathepsin V; pH 7.2): > 16 µM | IC50 (Cathepsin K; pH 4.6): > 16 µM | % inhibition (Cathepsin K; pH 4.6, 16 µM): 8% | IC50 (Cathepsin K; pH 5.5): > 16 µM | IC50 (Cathepsin K; pH 7.2): > 16 µM | irreversible or reversible inhibition of cathepsin B (cathepsin B [3]): irreversible

CCCNC(=O)[C@H]1O[C@@H]1C(=O)N[C@H](C(=O)N1CCC[C@H]1C(=O)OC)[C@@H](C)CC [CA-074Me]
IC50 (Cathepsin S; pH 4.6): > 16 µM | % inhibition (Cathepsin S; pH 4.6): 22% | IC50 (Cathepsin S; pH 5.5): 5.5 µM | IC50 (Cathepsin S; pH 7.2): 3.8 µM | IC50 (cathepsin B [2]; pH 4.6): 8.9 µM | fold less potent than CA-074 (IC50) (cathepsin B [2]; pH 4.6): 1495 fold | kinact (cathepsin B [2]; pH 4.6): 0.016 s⁻¹ | kinact/KI (cathepsin B [2]; pH 4.6): 310 M⁻¹ s⁻¹ | IC50 (cathepsin B [2]; pH 4.6, Z-Phe-Arg-AMC substrate, no preincubation): 8.97 µM | fold less potent than CA-074 (IC50) (cathepsin B [2]; pH 5.5): 311 fold | kinact (cathepsin B [2]; pH 5.5): 0.014 s⁻¹ | kinact/KI (cathepsin B [2]; pH 5.5): 250 M⁻¹ s⁻¹ | potency (KI) compared to CA-074 (cathepsin B [2]; pH 5.5): 1/265 | IC50 (cathepsin B [2]; pH 5.5, Z-Phe-Arg-AMC substrate, no preincubation): 13.7 µM | IC50 (cathepsin B [2]; pH 7.2): 7.6 µM | fold less potent than CA-074 (IC50) (cathepsin B [2]; pH 7.2): 10 fold | kinact (cathepsin B [2]; pH 7.2): 0.014 s⁻¹ | kinact/KI (cathepsin B [2]; pH 7.2): 480 M⁻¹ s⁻¹ | potency (KI) compared to CA-074 (cathepsin B [2]; pH 7.2): 1/15 | IC50 (cathepsin B [2]; pH 7.2, Z-Phe-Arg-AMC substrate, no preincubation): 7.56 µM | KI (inactivation) (cathepsin B [2]; pH 4.6): 52 µM | KI (inactivation) (cathepsin B [2]; pH 5.5): 56 µM | KI (inactivation) (cathepsin B [2]; pH 7.2): 29 µM | IC50 (Cathepsin C; pH 4.6): > 16 µM | % inhibition (Cathepsin C; pH 4.6): 5% | IC50 (Cathepsin C; pH 5.5): > 16 µM | % inhibition (Cathepsin C; pH 5.5): 0% | IC50 (Cathepsin C; pH 7.2): > 16 µM | % inhibition (Cathepsin C; pH 7.2): 4% | IC50 (Cathepsin L; pH 4.6): > 16 µM | % inhibition (Cathepsin L; pH 4.6): 0% | IC50 (Cathepsin L; pH 5.5): > 16 µM | % inhibition (Cathepsin L; pH 5.5): 0% | IC50 (Cathepsin X; pH 4.6): > 16 µM | % inhibition (Cathepsin X; pH 4.6): 0% | IC50 (Cathepsin X; pH 5.5): > 16 µM | % inhibition (Cathepsin X; pH 5.5): 0% | IC50 (Cathepsin V; pH 5.5): > 16 µM | % inhibition (Cathepsin V; pH 5.5): 22% | IC50 (Cathepsin V; pH 7.2): > 16 µM | % inhibition (Cathepsin V; pH 7.2): 0% | IC50 (Cathepsin K; pH 4.6): > 16 µM | % inhibition (Cathepsin K; pH 4.6): 0% | IC50 (Cathepsin K; pH 5.5): > 16 µM | % inhibition (Cathepsin K; pH 5.5): 0% | IC50 (Cathepsin K; pH 7.2): > 16 µM | % inhibition (Cathepsin K; pH 7.2): 16% | irreversible or reversible inhibition of cathepsin B (cathepsin B [3]): irreversible inhibition | IC50 (Cathepsin H; pH 4.6): > 16 µM | % inhibition (Cathepsin H; pH 4.6): 0% | IC50 (Cathepsin H; pH 5.5): > 16 µM | % inhibition (Cathepsin H; pH 5.5): 0% | IC50 (Cathepsin H; pH 7.2): > 16 µM | % inhibition (Cathepsin H; pH 7.2): 19%

Cc1cccc(C)c1C(=O)OCC(=O)[C@H](CCCCN)NC(=O)[C@H](CCCN=C(N)N)NC(=O)OCc1ccccc1 [Z-Arg-Lys-AOMK]
fold selective at inhibiting cathepsin B at pH 7.4 over pH 4.6 (cathepsin B [4]): > 100 fold
